# According to publication PMC9291521 (Frontiers in Chemistry, 2022):
# Like-named read-outs stand apart in the source and are kept apart here. Residues, ends and D or L forms follow the SMILES beside them. *: point of attachment. Cbz = O=C(OCc1ccccc1)*
# Experiments:
# SARS-CoV-2 3CL protease = SARS-CoV-2 3CL protease (Severe acute respiratory syndrome coronavirus 2, UniProt P0DTD1); assay: Kinetic assay of SARS-CoV-2 3CL-PR inhibition (FRET substrate); type: biochemical; conditions: after 30-min incubation; pH 7.2; read-out: Ki* 3CLpro
# [1] = test system: SARS-CoV-2-infected Vero E6 cells; assay: Micro-neutralization assay, virus-induced cytopathic effect in Vero E6 cells; type: cell-based
# [2] = test system: SARS-CoV-2-infected A549/ACE2 cells; assay: microbe, parasite or virus in culture; type: cell-based
# human cathepsin L [3] = target: T1, human cathepsin L (Homo sapiens, UniProt P07711); conditions: for fold more potent for human cathepsin L than for cruzain (Ki*): hCatL vs cruzain; for Ki: read-out: Ki* hCatL, after 30-min incubation, pH 5.5, fit of vs/v0 to Eq. 5
# Protocol: (§1) Recombinant proteases were obtained from the following vendors: recombinant human cathepsin L (Millipore Sigma, Athens Research and Technology, Inc.), and human liver cathepsin B (Millipore Sigma), which were used without further purification. […] These samples were then diluted into the same buffer to concentrations of ∼100 nM, and these dilutions were stored at 4°C and used daily until depletion.
# (§2) For assays of cathepsin L and B, inhibitors were evaluated in 0.25-ml reaction mixtures containing a buffer of sodium acetate (pH 5.5), 1 mM CHAPS, 1 mM Na2EDTA, and 5 mM DTT at 25°C. The fluorogenic substrate Cbz-Phe-Arg-7-amino-4-methyl-coumarin (Z-FR-AMC) was dissolved in 100% DMSO, as were all inhibitors and aliquots of both substrates, and inhibitors were added to the reaction mixtures with final concentrations of DMSO of 10% (v/v). […] Formation of the fluorescent product AMC was monitored over 30–60-min time courses for reaction mixtures in 96-well black microplates (Greiner). Rates of peptidolysis of the dipeptide-AMC substrate(s) were measured on either a SpectraMax M2 (Molecular Devices) or a Synergy Mx (Biotek, Wisnooki, VT) microplate reader which measured the formation of fluorescence using an excitation wavelength of λex = 360 nm, with detection of emission at λem = 460 nm at ≥8-s intervals. Control samples excluded substrate. The measured relative fluorescence units (RFUs) of generated AMC were converted to reaction rates of μM/s by use of a standard curve of known AMC concentrations obtained for both plate readers.
# cruzain = conditions: pH 7.5; ref Li et al., 2021; cited from earlier work
# human cathepsin L [4] = target: T1, human cathepsin L; assay: biochemical
# Protocol: as §1, §2
# human cathepsin B = target: T2, human cathepsin B (Homo sapiens, UniProt P07858); assay: Kinetic assay of human cathepsin B inhibition (Z-FR-AMC peptidolysis); type: biochemical; conditions: after 30-min incubation; pH 5.5; read-out: Ki* hCatB
# T2 construct: purchased Millipore Sigma; host or cells: human liver (so in the source)
# [5] = test system: SARS-CoV-2-infected Vero E6 cells; conditions: cited from earlier work
# [6] = test system: SARS-CoV-2-infected A549/ACE2 cells; conditions: read-out: Anti-CoV-2 EC50 A549/ACE2 Cells, cited from earlier work
# [7] = Severe acute respiratory syndrome coronavirus 2, Vero C1008, 72 h, prevention of CPE, 3 days, read-out: Anti-CoV-2 EC50 Vero E6 Cells
# [8] = Severe acute respiratory syndrome coronavirus 2, A549-ACE2, 96 h, read-out: Anti-CoV-2 EC50 A549/ACE2 Cells
# [9] = Ki (initial EI complex), fit of vi/v0 vs. [I] to Eq. 4
# [10] = Ki* hCatL, after 30-min incubation, pH 5.5, fit of vs/v0 to Eq. 5
# [11] = previously reported, ref Li et al., 2021
# [12] = Severe acute respiratory syndrome coronavirus 2, A549-ACE2, 96 h, prevention of CPE, 4 days, read-out: Anti-CoV-2 EC50 A549/ACE2 Cells
# [13] = Severe acute respiratory syndrome coronavirus 2, A549-ACE2, read-out: EC50 A549/ACE2 cells
# T1 sequence (P07711 114-333): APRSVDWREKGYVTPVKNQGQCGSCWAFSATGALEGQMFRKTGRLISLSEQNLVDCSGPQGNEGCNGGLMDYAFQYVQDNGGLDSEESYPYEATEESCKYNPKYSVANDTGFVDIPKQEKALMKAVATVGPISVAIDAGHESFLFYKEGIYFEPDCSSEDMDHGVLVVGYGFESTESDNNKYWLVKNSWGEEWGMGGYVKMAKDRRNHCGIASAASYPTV
Compound,Ki (SARS-CoV-2 3CL protease),"EC50 [1, 7]",Ki (cruzain),Ki (human cathepsin B),Ki (human cathepsin L [3]),other results
"O=C[C@H](Cc1ccccc1)NC(=O)[C@H](Cc1ccccc1)NC(=O)OCc1ccccc1 [Compound 1, Cbz-Phe-Phe-CHO] (Cbz-Phe-Phe-aldehyde)",> 10000 nM,470 nM,0.44 ± 0.02 nM,–,–,"EC50 ([1]; Severe acute respiratory syndrome coronavirus 2, Vero C1008, repeat of the experiment with a different sample of 1, read-out: Anti-CoV-2 EC50 Vero E6 Cells): 7500 nM; EC50 [2, 8]: > 20000 nM; fold more potent for human cathepsin L than for cruzain (Ki*) (human cathepsin L [3]): 3 fold; Ki (human cathepsin L [4]; [9]): 0.18 ± 0.22 nM; Ki (human cathepsin L [4]; [10]): 0.14 ± 0.01 nM"
"O=C(N[C@@H](Cc1ccccc1)C(=O)N[C@H]1Cc2ccccc2OC1O)OCc1ccccc1 (stereo partly drawn) [Compound 2, Cbz-Phe-o-Tyr-CHO]",> 10000 nM,10000 ± 5000 nM,49 ± 2 nM,4500 nM,–,"EC50 [2, 8]: > 20000 nM; fold faster k4 than aldehyde 1 (human cathepsin L [3]; conversion of EI* to EI): ~5 fold; fold more potent for human cathepsin L than for cruzain (Ki*) (human cathepsin L [3]): 3.9 fold; k4 (reversion of EI* to EI) (human cathepsin L [3]; intercept of kobs vs. [I], fit to Eq. 3): 0.0016 ± 0.0002 s⁻¹; fold less potent inhibitor of cathepsin L than 1 (Ki*) (human cathepsin L [3]; relative to aldehyde 1): 100 fold; Ki (human cathepsin L [4]; [9]): 54 ± 6 nM; Ki (human cathepsin L [4]; [10]): 12.6 ± 0.4 nM; Ki (human cathepsin L [4]; k4Ki/k3 ∼ Ki*, calculated from the Eq. 3 parameters): ~200 nM"
COc1ccc2c(c1)C[C@H](NC(=O)[C@H](Cc1ccccc1)NC(=O)OCc1ccccc1)C(O)O2 (stereo partly drawn) [Compound 3],> 10000 nM,–,350 ± 30 nM,5500 nM,17 ± 0.9 nM,fold increase in Ki* compared to 2 (human cathepsin L [3]; cathepsin L): 1.4 fold
Cc1ccc2c(c1)C[C@H](NC(=O)[C@H](Cc1ccccc1)NC(=O)OCc1ccccc1)C(O)O2 (stereo partly drawn) [Compound 4],> 10000 nM,–,103 ± 5 nM,6100 nM,26 ± 0.9 nM,fold increase in Ki* compared to 2 (human cathepsin L [3]; cathepsin L): 2 fold
O=C(N[C@@H](Cc1ccccc1)C(=O)N[C@H]1Cc2cc(Cl)ccc2OC1O)OCc1ccccc1 (stereo partly drawn) [Compound 5],> 10000 nM,–,70 ± 10 nM,1400 ± 100 nM,12.1 ± 0.3 nM,–
O=C(N[C@@H](Cc1ccccc1)C(=O)N[C@H]1Cc2cc(F)ccc2OC1O)OCc1ccccc1 (stereo partly drawn) [Compound 6],> 10000 nM,4000 nM,48 ± 2 nM,2300 nM,10.3 ± 0.5 nM,–
COC(=O)c1ccc2c(c1)C[C@H](NC(=O)[C@H](Cc1ccccc1)NC(=O)OCc1ccccc1)C(O)O2 (stereo partly drawn) [Compound 7],> 10000 nM,2500 nM,18 ± 0.5 nM,670 ± 30 nM,4.8 ± 0.2 nM,fold improved potency over 2 (human cathepsin L [3]; cathepsin L): 2.6 fold
"CN1CCN(C(=O)NC(Cc2ccccc2)C(=O)NC2Cc3ccccc3OC2O)CC1 (stereo not drawn) [Compound 8, NMe-Pip-Phe-o-Tyr-CHO]",> 10000 nM,9000 ± 2000 nM,47 ± 2 nM,1270 ± 70 nM,–,anti-viral effect in infected A549/ACE2 cells ([2]; in words): no anti-viral effect; Ki (human cathepsin L [4]; [9]): 22 ± 1 nM; Ki (human cathepsin L [4]; [10]): 9 ± 0.4 nM
CC(C)[C@H](NC(=O)OCc1ccccc1)C(=O)N[C@@H](CC1CCCCC1)C(=O)N[C@H]1Cc2cccnc2OC1O (stereo partly drawn) [Compound 9],9 ± 2 nM,–,–,–,–,"effect in SARS-CoV-2-infected Vero E6 cells [5, 11]: no effect; EC50 [6, 11]: 3750 nM; Ki (human cathepsin L [4]; [10]): 22 ± 4 nM"
CC(=O)OC1Oc2ccccc2CC1NC(=O)C(Cc1ccccc1)NC(=O)N1CCN(C)CC1 (stereo not drawn) [Compound 10],–,2500 nM,–,–,–,"EC50 [2, 12]: 310 nM; EC50 [2, 13]: 312 nM"
CCC(=O)OC1Oc2ccccc2CC1NC(=O)C(Cc1ccccc1)NC(=O)N1CCN(C)CC1 (stereo not drawn) [Compound 11],–,2500 nM,–,–,–,"EC50 [2, 12]: 620 nM; EC50 [2, 13]: 625 nM"
CC(C)C(=O)OC1Oc2ccccc2CC1NC(=O)C(Cc1ccccc1)NC(=O)N1CCN(C)CC1 (stereo not drawn) [Compound 12],–,3750 nM,–,–,–,"EC50 ([1]; prevention of CPE, 3 days, read-out: Anti-CoV-2 EC50 Vero E6 Cells): 4000 nM; EC50 [2, 12]: 310 nM; EC50 [2, 13]: 156 nM"
CN1CCN(C(=O)N[C@@H](Cc2ccccc2)C(=O)N[C@H](/C=C/S(=O)(=O)c2ccccc2)CCc2ccccc2)CC1 [Compound K777],–,–,–,–,–,"EC50 ([1]; Severe acute respiratory syndrome coronavirus 2, Vero C1008, 72 h, read-out: Anti-CoV-2 EC50 Vero E6 Cells): 150 nM; EC50 ([1]; Severe acute respiratory syndrome coronavirus 2, Vero C1008, read-out: EC50 Vero E6 cells): 156 nM; EC50 ([5]; previously found, ref Mellott et al., 2021, read-out: EC50 Vero E6 cells): 625 nM; EC50 ([5]; ref Mellott et al. (2021), read-out: Anti-CoV-2 EC50 Vero E6 Cells): 620 nM; EC50 ([6]; ref Mellott et al. (2021)): < 78 nM"
"CC(C)(C)[C@H](NC(=O)C(F)(F)F)C(=O)N1C[C@H]2[C@@H]([C@H]1C(=O)N[C@H](C#N)C[C@@H]1CCNC1=O)C2(C)C [PF-07321332, reference compound]",–,> 20000 nM,–,–,–,"EC50 [2, 8]: 470 nM; EC50 ([5]; ref Owen et al. (2021), read-out: Anti-CoV-2 EC50 Vero E6 Cells): 74 nM; EC50 ([6]; ref Owen et al. (2021)): 77 nM"
